According to US20250144066A1, “Prevention and Treatment of Parasitic Infections” (priority 2017, published 2025):
Values after ≈ are worked out from the molar mass of the structure shown. “Also recorded” adds a separate entry of the source. Read-outs that look alike come from different tables or passages of the source.

How the values were obtained:
[1] = test system: Adenovirus5 Adenoid75; test: Adenovirus 5 CPE inhibition, A549 (ADV-0172); type: cell-based; conditions: A549
[2] = test system: A549; test: Toxicity in A549 cells (ADV-0172); type: cell-based
[3] = test system: mouse norovirus (MNV-1); test: Mouse norovirus CPE inhibition (NR), RAW264.7 (17-09); type: cell-based
[4] = test system: human norovirus (NV, GT1); test: Human norovirus replicon, qPCR, HG23, secondary (17-14); type: cell-based
Source text: (§1) Secondary testing was done with human norovirus.

[5] = test system: HG23; test: NR toxicity in HG23 cells (17-14); type: cell-based; conditions: NR (Tox)
Source text: as §1

[6] = test system: RAW264.7
[7] = test system: HG23; test: RNA Hybridization toxicity in HG23 cells (16-21); type: cell-based
Source text: as §1

[8] = test system: human norovirus (NV, GT1); test: Human norovirus replicon, RNA Hybridization, HG23, primary (16-21); type: cell-based; conditions: RNA Hybridization (Replicon), NV GT1, HG23
Source text: as §1

[9] = Neutral Red toxicity in Huh7 cells, secondary (Zika-094); conditions: human
[10] = Toxicity in Vero 76 cells, primary screen (Zika-089); conditions: monkey, Vero 76 cells
[11] = Neutral Red toxicity in Vero 76 cells, secondary (Zika-094); conditions: monkey, Vero 76 cells
[12] = test system: Zika Virus; test: Zika virus cytopathic effect (CPE) inhibition, Vero 76, primary screen (Zika-089); type: cell-based; conditions: Zika virus, MR766, Vero 76, primary
[13] = test system: Zika Virus; test: Zika virus CPE inhibition (Neutral Red), Huh7, secondary (Zika-094); type: cell-based; conditions: Huh-7, Neutral Red (Cytopathic effect), MR766, Huh7, secondary, read-out: EC50
[14] = test system: Zika Virus; test: Zika virus yield reduction (VYR), Vero 76, secondary (Zika-094); type: cell-based; conditions: Visual (Virus yield reduction), MR766
[15] = test system: Zika Virus; test: Zika virus yield reduction (VYR), Huh7, secondary (Zika-094); type: cell-based; conditions: Huh-7, Visual (Virus yield reduction), MR766
[16] = test system: Zika Virus; test: Zika virus CPE inhibition (Neutral Red), Vero 76, secondary (Zika-094); type: cell-based; conditions: Neutral Red (Cytopathic effect), MR766
[17] = Cell Titer-Glo toxicity in C-33A cells (HPV16-15); conditions: human, C-33A cells
[18] = test system: influenza A/California/04/2009 (H1N1pdm); test: Mycophenolate mofetil in influenza-infected mice on standard or low nucleotide diet (Example 19); type: in vivo, C57BL/6 mice; conditions: for Mean Day of Death (MDD) vs placebo: standard diet
[19] = test system: Zika Virus; test: Zika prevention, virus yield reduction (VYR), Huh7, 24 h pre-incubation (Zika-138); type: cell-based; conditions: Visual (Virus yield reduction); Huh7; pre-incubated 24 hours prior to infection
Protocol: (§2) An experiment was carried out as specified in Example 8. In a Zika Prevention Trial, MPA was pre-incubated with human cells 4 hours or 24 hours before Zika virus infection.

[20] = test system: Zika Virus; test: Zika prevention, virus yield reduction (VYR), Vero 76, 4 h pre-incubation (Zika-138); type: cell-based; conditions: Visual (Virus yield reduction), pre-incubated 4 hours prior to infection
[21] = test system: Zika Virus; test: Zika prevention, CPE inhibition (Neutral Red), Vero 76, 24 h pre-incubation (Zika-138); type: cell-based; conditions: Neutral Red (Cytopathic effect), pre-incubated 24 hours prior to infection
[22] = test system: Vero 76
[23] = test system: Zika Virus; test: Zika prevention, CPE inhibition (Neutral Red), Vero 76, 4 h pre-incubation (Zika-138); type: cell-based; conditions: Neutral Red (Cytopathic effect), pre-incubated 4 hours prior to infection
[24] = test system: Zika Virus; test: Zika prevention, CPE inhibition (Neutral Red), Huh7, 4 h pre-incubation (Zika-138); type: cell-based; conditions: Neutral Red (Cytopathic effect), pre-incubated 4 hours prior to infection
[25] = test system: Vero 76; remark: listed apart in the source
[26] = test system: Zika Virus; test: Zika prevention, virus yield reduction (VYR), Huh7, 4 h pre-incubation (Zika-138); type: cell-based; conditions: Visual (Virus yield reduction); Huh7; pre-incubated 4 hours prior to infection
Protocol: as §2

[27] = test system: Zika Virus; test: Zika prevention, virus yield reduction (VYR), Vero 76, 24 h pre-incubation (Zika-138); type: cell-based; conditions: Visual (Virus yield reduction), pre-incubated 24 hours prior to infection
[28] = test system: Zika Virus; test: Zika prevention, CPE inhibition (Neutral Red), Huh7, 24 h pre-incubation (Zika-138); type: cell-based; conditions: Neutral Red (Cytopathic effect), pre-incubated 24 hours prior to infection
[29] = test system: influenza A/California/04/2009 (H1N1pdm); test: Oseltamivir with control or low guanosine diet in influenza-infected mice (Example 15); type: in vivo, C57BL/6 mice; conditions: oseltamivir IP, BID for five days from four hours pre-infection
[30] = test system: Rift Valley fever virus MP-12; test: microbe, parasite or virus in culture; type: cell-based
[31] = test system: Influenza A virus H1N1 California/07/2009; test: microbe, parasite or virus in culture; type: cell-based
[32] = in vitro; conditions: African green monkey
[33] = test system: Respiratory syncytial virus A2; test: microbe, parasite or virus in culture; type: cell-based
[34] = test system: Lassa fever virus Josiah; test: organism not typed; type: cell-based; conditions: Vero
[35] = in vitro; conditions: dog
[36] = in vitro; conditions: African green monkey; remark: listed apart in the source

Compound `Nc1ccn([C@H]2CC[C@@H](CO)O2)c(=O)n1` [2,3-Dideoxycytidine] has an EC50 ([1]; Neutral Red (Cytopathic effect)) of 3.2 µg/mL (≈ 15.2 µM), an EC50 ([1]; Visual (Cytopathic effect)) of 3.2 µg/mL (≈ 15.2 µM) and a CC50 ([2]; Neutral Red (Toxicity)) greater than 100 µg/mL. The CC50 ([2]; Visual (Toxicity)) was greater than 100 µg/mL.

In the case of `C[C@@]1(O)[C@H](O)[C@@H](CO)O[C@H]1n1ccc(N)nc1=O` [2′C-methyl cytidine], the EC50 [3] is reported as 1 µM, the EC90 [3] is reported as 3.2 µM and the EC50 [4] is reported as 6 µM. It also gave an EC90 [4] of 18 µM, a CC50 [5] greater than 300 µM and a CC50 [6] of 51 µM. For the same compound, the CC50 [7] was greater than 300 µM, the EC50 ([8]; read-out: EC50) was 6.6 µM and the EC90 ([8]; read-out: EC90) was 17 µM.

Work on `O=c1cnn([C@@H]2O[C@H](CO)[C@@H](O)[C@H]2O)c(=O)[nH]1` [6-Azauridine] yielded a CC50 [9] greater than 100 µg/mL, a CC50 ([10]; CC50, Neutral Red (Toxicity)) of 83.3 µg/mL (≈ 340 µM) and a CC50 ([10]; CC50, Visual (Toxicity)) greater than 100 µg/mL. For the same compound, the CC50 [11] was 9.9 µg/mL (≈ 40.4 µM), the EC50 ([12]; Vero 76, Neutral Red (Cytopathic effect)) was 0.35 µg/mL (≈ 1.43 µM) and the EC50 ([12]; Vero 76, Visual (Cytopathic effect)) was 0.32 µg/mL (≈ 1.31 µM). The EC50 [13] was 1.2 µg/mL (≈ 4.89 µM), the EC90 [14] was 1.3 µg/mL (≈ 5.3 µM) and the EC90 [15] was 27.4 µg/mL (≈ 112 µM). It also gave an EC50 [16] of 0.37 µg/mL (≈ 1.51 µM).

Compound `Nc1nc2c(ncn2CCOCP(=O)(O)O)c(=O)[nH]1` [9-[2-(phosphonomethoxy)ethyl]guanine] has a CC50 [17] of 141 µM.

In the case of `COc1c(C)c2c(c(O)c1C/C=C(\C)CCC(=O)OCCN1CCOCC1)C(=O)OC2` [MMF, 2-morpholinoethyl ester of mycophenolic acid], the “protection (survival) vs placebo” value ([18]; low nucleotide diet, MMF 4 mg/kg/day bid for 6 days beginning 4 h pre-infection) is reported as “significant (P<0.05) protection; also recorded: improved survival outcome”, the “Mean Day of Death (MDD) vs placebo” value ([18]; MMF 4 mg/kg/day PO bid for 6 days) is reported as “significantly (P<0.05) increased” and the “Mean Day of Death (MDD) vs placebo” value ([18]; MMF 40 mg/kg/day PO bid for 6 days) is reported as “significantly (P<0.05) increased”.

With `C#C[C@@]1(O)[C@H](O)[C@@H](CO)O[C@H]1n1ccc2c(N)ncnc21` [NITD008] the EC90 [19] was 1.0 µg/mL (≈ 3.44 µM), the EC90 [20] was 7.81 µg/mL (≈ 26.9 µM) and the EC50 [21] was 5.1 µg/mL (≈ 17.6 µM). It also gave a CC50 [22] greater than 100 µg/mL, an EC50 [23] of 8.3 µg/mL (≈ 28.6 µM) and an EC50 [24] of 1.1 µg/mL (≈ 3.79 µM). The CC50 [25] was greater than 100 µg/mL, the EC90 [26] was 0.61 µg/mL (≈ 2.1 µM) and the EC90 [27] was 31.62 µg/mL (≈ 109 µM). For the same compound, the EC50 [28] was 0.77 µg/mL (≈ 2.65 µM).

With `CCOC(=O)C1=C[C@@H](OC(CC)CC)[C@H](NC(C)=O)[C@@H](N)C1` [Oseltamivir, oseltamivir] the “survival at 21 days post-infection” value ([29]; Group A, control diet (Harlan mouse lab diet)) was 40% and the “survival at 21 days post-infection” value ([29]; Group B, low guanosine diet (Purina Mills #5755)) was 100%.

In the case of `NC(=O)c1ncn([C@@H]2O[C@H](CO)[C@@H](O)[C@H]2O)n1` [Ribavirin], the EC50 [30] is reported as 12 µg/mL (≈ 49.1 µM), the EC50 ([30]; Rift Valley fever virus, Vero 76) is reported as 11 µg/mL (≈ 45 µM) and the EC50 [31] is reported as 4.1 µM. The EC50 ([31]; Influenza A virus, H1N1, MDCK) was 3.7 µM, the CC50 [32] was greater than 1000 µg/mL and the EC50 [33] was 12 µg/mL (≈ 49.1 µM). For the same compound, the EC50 ([33]; human respiratory syncytial virus, MA104) was 7.6 µg/mL (≈ 31.1 µM), the EC50 [34] was 32 µM and the CC50 [35] was greater than 320 µM. The CC50 [36] was greater than 100 µM.
